Test results taken from paper PMC11085086, “Microwave-Assisted Atom Transfer Radical Cyclization in the Synthesis of 3,3-Dichloro-γ- and δ-Lactams from N-Alkenyl-Tethered Trichloroacetamides Catalyzed by RuCl2(PPh3)3 and Their Cytotoxic Evaluation” (Molecules, 2024).
In brackets after ≈: the same amount, converted by molar mass.

Key:
[1] = Hemolysis assay with human erythrocyte suspension; assay type: cell-based; conditions: human, washed human erythrocyte suspension, PBS pH 7.4, read-out: degree of hemolysis
Method: Human blood samples were obtained from the Banc de Sang i Teixits de Barcelona (Spain) from the Catalan Department of Health. Blood was deposited in tubes with the anticoagulant EDTA-K3. Blood samples were centrifuged at 3000 rpm and 4 °C for 10 min (Megafuge 2.0 R. Heraeus Instruments, Hanau, Germany) to induce sedimentation. Plasma was extracted with a Pasteur pipette. Next, the residual pellet was washed with PBS at pH 7.4. This procedure was repeated three times to remove residual leukocytes and platelets and to concentrate the erythrocytes. Following the last wash, the erythrocyte suspension was diluted (1:1) in PBS at pH 7.4 to obtain a suitable erythrocyte suspension (cell density of 8 × 10^9 cell/mL).
The hemolysis assay determined the capability of different compounds to induce the hemolysis of the erythrocyte membrane. Stock solutions of each compound at 1 mg/mL in PBS at pH 7.4 were prepared. Different volumes (10–80 μL) were placed in polystyrene tubes, and an aliquot of 25 µL of the erythrocyte suspensions was added to each tube. The final volume was 1 mL. The tubes were incubated at room temperature under rotatory conditions. Then, the tubes were centrifuged at 10,000 rpm for 5 min. The supernatants’ absorbance at 540 nm (Shimadzu UV-160A, Shimadzu, Duisburg, Germany) was compared with that of the positive (erythrocytes hemolyzed with distilled water) and negative (erythrocyte suspension in PBS at pH 7.4.) controls.
The degree of hemolysis was determined using the following equation:Hemolysis (%) = 100 × (Abs − Abs0)/(Abs100 − Abs0) where Abs, Abs0 and Abs100 are the absorbance of the test samples, of the suspension treated with isotonic phosphate–buffered saline (PBS) and of the suspension of complete hemolysis treated with distilled water, respectively.

[2] = Cell viability assay, MTT endpoint, 3T3; assay type: cell-based, murine; conditions: mouse, 3T3 fibroblasts, 3T3, 250 µg/mL, 24 h
Method: (§1) The murine Swiss albino fibroblasts (3T3), the human breast adenocarcinoma (MCF-7), the human epithelial carcinoma (HeLa) and the squamous cell carcinoma (A431) cell lines were obtained from Celltec UB. Cells were grown in DMEM medium (4.5 g/L glucose) supplemented with 10% (v/v) FBS, 2 mM L-glutamine, 100 U/mL penicillin and 100 µg/mL streptomycin at 37 °C, 5% CO2. Cells were routinely cultured in 75 cm^2 culture flasks and were trypsinized using trypsin–EDTA when the cells reached approximately 80% confluence. The trypan blue assay, which allows for a direct identification and enumeration of the live (unstained) and dead (blue) cells in the cell population, was used to evaluate the viability of the cells in the cell suspension obtained.
(§2) 3T3 (1 × 10^5 cells/mL), A431, HeLa and MCF-7 cells (5 × 10^4 cells/mL) were grown at defined densities in the 60 central wells of a 96-well plate. Cells were incubated for 24 h in 5% CO2 at 37 °C. Then, the spent medium was removed, and cells were incubated for 24 h with their corresponding compound solutions (1 mg/mL) previously diluted in a minimum amount of DMF (dimethylformamide) and then in DMEM medium supplemented with 5% FBS (100 µL) at the required concentration range (10–250 µg/mL). The viability of the cells upon incubation with the lactam derivatives was assayed using 2 different endpoints: NRU and MTT.
(§3) Only living cells can reduce the yellow tetrazolium salt 3-(4,5-dimethyl-2-thiazolyl)-2,5-diphenyltetrazolium bromide (MTT) to insoluble purple formazan crystals. After a 24 h incubation of the cells with their corresponding NPs, the medium was removed and 100 µL of MTT (Sigma-Aldrich, St. Louis, USA) in PBS (5 mg/mL) diluted 1:10 in culture medium without phenol red and without FBS (Lonza, Verviers, Belgium) was added to the cells. After 3 h of incubation, the medium was removed. Thereafter, 100 µL of DMSO (Sigma-Aldrich, St. Louis, MO, USA) was added to each well to dissolve the purple formazan crystals. Agitation and determination of the absorbance of the extracted solution were performed under the same conditions as described in NRU Assay section. Finally, the effect of each treatment was calculated as the percentage of tetrazolium salt’s reduction by viable cells relative to control cells (cells without any treatment).
(§4) The corresponding half-maximal inhibitory concentration (IC50) values for the different formulations as a function of the cell line and endpoint were determined from the fitting of concentration-dependent viability curves. The corresponding selectivity indexes toward tumoral cells were calculated using the following ratio: SI = IC50 (non-tumoral cell line)/IC50 (tumoral cell line) where 3T3 fibroblasts were used as close representative cells under non-tumoral conditions. Moreover, pseudo selectivity indexes toward tumoral cells were calculated considering the discrete cellular responses at the maximum tested concentration (250 µg/mL).

[3] = system: murine Swiss albino fibroblasts (3T3); experiment: Cell viability assay, MTT endpoint, 3T3; assay type: cell-based; conditions: Mus musculus, Fibroblast, 3T3, 24 h incubation, 10–250 µg/mL
Method: as §1, §2, §3, §4

[4] = Cell viability assay, MTT endpoint, A431; assay type: cell-based; conditions: human, A431 squamous cell carcinoma cells, A431, highest assayed concentration 250 µg/mL, 24 h
Method: as §1, §2, §3, §4

[5] = system: squamous cell carcinoma (A431) cell line; experiment: Cell viability assay, MTT endpoint, A431; assay type: cell-based
Method: as §1, §2, §3, §4

[6] = Cell viability assay, MTT endpoint, HeLa; assay type: cell-based, human; conditions: human, HeLa cells, HeLa, 250 µg/mL, 24 h
Method: as §1, §2, §3, §4

[7] = system: human epithelial carcinoma (HeLa) cell line; experiment: Cell viability assay, MTT endpoint, HeLa; assay type: cell-based
Method: as §1, §2, §3, §4

[8] = system: human breast adenocarcinoma (MCF-7) cell line; experiment: Cell viability assay, MTT endpoint, MCF-7; assay type: cell-based; conditions: MTT
Method: as §1, §2, §3, §4

[9] = system: murine Swiss albino fibroblasts (3T3); experiment: Cell viability assay, NRU endpoint, 3T3; assay type: cell-based; conditions: Mus musculus, Fibroblast, 3T3, 24 h incubation, 10–250 µg/mL
Method: as §1, §2
(§5) The neutral red uptake (NRU) assay is based on the accumulation of dye in the lysosomes of viable cells. After the cells were incubated for 24 h with the corresponding systems, the medium was removed, and the solutions were incubated with the NR dye (Sigma-Aldrich, St. Louis, MO, USA) solution (50 µg/mL) dissolved in the medium, without FBS and without phenol red (Lonza, Verviers, Belgium), for 3 h. Cells were then washed with sterile PBS, followed by the addition of 100 µL of a solution containing 50% absolute ethanol and 1% acetic acid in distilled water to extract the dye. To promote the total dissolution of the dye, plates were placed in a microtiter-plate shaker for 5 min at room temperature. The absorbance of the resulting solutions was measured at 550 nm (Bio-Rad 550 microplate reader, Bio-Rad California, Hercules, CA, USA). Finally, the effect of each treatment was calculated as the percentage of dye uptake by viable cells relative to the control cells (cells without any treatment).
as §4

[10] = system: squamous cell carcinoma (A431) cell line; experiment: Cell viability assay, NRU endpoint, A431; assay type: cell-based; conditions: A431 compared to 3T3, 250 µg/mL, 24 h
Method: as §1, §2, §5, §4

[11] = system: human epithelial carcinoma (HeLa) cell line; experiment: Cell viability assay, NRU endpoint, HeLa; assay type: cell-based; conditions: 24 h incubation, 10–250 µg/mL
Method: as §1, §2, §5, §4

[12] = system: human breast adenocarcinoma (MCF-7) cell line; experiment: Cell viability assay, NRU endpoint, MCF-7; assay type: cell-based; conditions: Homo sapiens, MCF7, 24 h incubation, 10–250 µg/mL
Method: as §1, §2, §5, §4

[13] = Cell viability assay, NRU endpoint, cell line not specified; assay type: cell-based; conditions: up to 250 µg/mL, read-out: minimum cell viability values
Method: as §1, §2, §5

[14] = system: 3T3, A431, HeLa and MCF-7 cell lines; experiment: Cell viability assays (MTT and NRU), endpoint and cell line not specified; assay type: cell-based; conditions: range over cell lines; read-out: lowest IC50 values as a function of cell line
Method: as §1, with “The trypan blue assay, which allows for a direct identification and enumeration of the live (unstained) and dead (blue) cells in the cell population, was used to evaluate the viability of the cells in the cell suspension obtained.” left out
The neutral red uptake (NRU) assay is based on the accumulation of dye in the lysosomes of viable cells. […] The absorbance of the resulting solutions was measured at 550 nm (Bio-Rad 550 microplate reader, Bio-Rad California, Hercules, CA, USA). Finally, the effect of each treatment was calculated as the percentage of dye uptake by viable cells relative to the control cells (cells without any treatment).
Only living cells can reduce the yellow tetrazolium salt 3-(4,5-dimethyl-2-thiazolyl)-2,5-diphenyltetrazolium bromide (MTT) to insoluble purple formazan crystals. […] Agitation and determination of the absorbance of the extracted solution were performed under the same conditions as described in NRU Assay section. Finally, the effect of each treatment was calculated as the percentage of tetrazolium salt’s reduction by viable cells relative to control cells (cells without any treatment). […]

## O=C1N(Cc2ccccc2)[C@@H]2CC[C@@H](Cl)[C@@H](C2)C1(Cl)Cl (racemic) [2k, (1RS,5RS,6RS)-2-Benzyl-4,4,6-trichloro-2-azabicyclo[3.3.1] nonan-3-one]
other
  melting point: 116 to 118 °C

## C[C@@H](Cl)[C@H]1CN(C(C)(C)C)C(=O)C1(Cl)Cl (racemic) [epi-2g, (RS)-1-(tert-Butyl)-3,3-dichloro-4-((RS)-1-chloroethyl)pyrrolidin-2-one]
other
  melting point: 113 to 114 °C

## CC(C)(C)N1CC(CCl)C(Cl)(Cl)C1=O (centres unmarked) [2a, 1-(tert-Butyl)-3,3-dichloro-4-(chloromethyl)pyrrolidin-2-one]
[1]; 10 µg/mL
  hemolysis at 10 µg/mL: 0.02%
[1]; 80 µg/mL
  hemolysis at 80 µg/mL: ~0.07%
[2]
  viability at 24 h, 250 µg/mL: 15%
[3]
  IC50: 172 µg/mL (≈ 665 µM)
[4]
  viability at 24 h, 250 µg/mL: 5%
[5]; A431, 24 h incubation, 10–250 µg/mL
  MTT IC50 A431: 126 µg/mL
[5]; A431 compared to 3T3, 250 µg/mL, 24 h
  SI250 (selective toxicity at 250 µg/mL): 3.3
[5]; Homo sapiens, A-431, 24 h, A431, 24 h incubation, 10–250 µg/mL
  IC50: 192 µg/mL (≈ 743 µM)
[5]; SI = IC50 (3T3)/IC50 (A431)
  MTT SI A431: 1.4
[6]
  viability at 24 h, 250 µg/mL: 15%
[7]; HeLa, 24 h incubation, 10–250 µg/mL
  MTT IC50 Hela: 109 µg/mL
[7]; Homo sapiens, HeLa, 24 h, 24 h incubation, 10–250 µg/mL
  IC50: 195 µg/mL (≈ 754 µM)
[7]; SI = IC50 (3T3)/IC50 (HeLa)
  MTT SI HeLa: < 1
[8]; Homo sapiens, MCF7, 24 h incubation, 10–250 µg/mL
  IC50: > 250 µg/mL
[8]; SI = IC50 (3T3)/IC50 (MCF7)
  MTT SI MCF7: <0.69
[9]
  IC50: > 250 µg/mL
[10]
  SI250 (selective toxicity at 250 µg/mL): 2.2
[11]
  IC50: > 250 µg/mL
[12]
  IC50: > 250 µg/mL
[13]
  viability at 24 h: 30%
[14]
  IC50: 100 to 250 µg/mL (≈ 387 to 967 µM)
